The subject of this test is BDF1 mice, colon carcinoma 38 sc, T/C %. The test is described as follows: NCI In Vivo Anticancer Drug Screen. Data for tumor model Colon Carcinoma 38 (subcutaneous) in B6D2F1 (BDF1) mice. The note with it: endpoint: median tumor weight (est.), higher = larger tumour. In a few lines:
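Transplantable tumor in mice; compound-treated vs vehicle-dosed controls. Measured survival or tumor size; value = T ÷ C.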

Where [1] appears, read: dose: 6.25 mg/kg/injection, schedule: Q07DX003 (ip), vehicle: saline.
Where [2] appears, read: dose: 12.5 mg/kg/injection, schedule: Q07DX003 (ip), vehicle: saline.
The mark [3] stands for this setting: dose: 25.0 mg/kg/injection, schedule: Q07DX003 (ip), vehicle: saline.
Where [4] appears, read: dose: 100.0 mg/kg/injection, schedule: Q07DX003 (ip), vehicle: saline.
Setting [5] is: dose: 12.5 mg/kg/injection, schedule: Q07DX002 (ip), vehicle: saline.
The mark [6] stands for this setting: dose: 25.0 mg/kg/injection, schedule: Q07DX002 (ip), vehicle: saline.
The mark [7] stands for this setting: dose: 50.0 mg/kg/injection, schedule: Q07DX002 (ip), vehicle: saline.
Setting [8] is: dose: 100.0 mg/kg/injection, schedule: Q07DX002 (ip), vehicle: saline.
[9] abbreviates: dose: 200.0 mg/kg/injection, schedule: Q07DX002 (ip), vehicle: Klucel (hydroxypropylcellulose) (HPC).
The mark [10] stands for this setting: dose: 25.0 mg/kg/injection, schedule: Q07DX002 (ip), vehicle: saline with Tween-80.
Setting [11] is: dose: 200.0 mg/kg/injection, schedule: Q07DX002 (ip), vehicle: saline with Tween-80.

Structures are written as SMILES. Several values for one entry are separate records, joined by “and”; a condition that tells them apart may be missing. Equal entries are not always repeated. Records with an inconclusive call do not appear.

`Nc1nc([Se])c2ncn(C3OC(CO)C(O)C3O)c2n1` (centres undefined): the T/C is 23 % of control (dose: 4.0 mg/kg/injection, schedule: Q07DX002 (ip), vehicle: saline); 124 % of control (dose: 4.0 mg/kg/injection, schedule: Q07DX002 (ip), vehicle: suspension in saline); 170 % of control (dose: 4.0 mg/kg/injection, schedule: Q07DX003 (ip), vehicle: saline); 14 % of control (dose: 8.0 mg/kg/injection, schedule: Q07DX002 (ip), vehicle: saline); 112 % of control and 94 % of control (dose: 8.0 mg/kg/injection, schedule: Q07DX002 (ip), vehicle: suspension in saline); 93 % of control (dose: 8.0 mg/kg/injection, schedule: Q07DX003 (ip), vehicle: saline). The T/C (dose: 16.0 mg/kg/injection, schedule: Q07DX002 (ip), vehicle: saline) was 20 % of control; the T/C (dose: 16.0 mg/kg/injection, schedule: Q07DX002 (ip), vehicle: suspension in saline) is 83 % of control and 86 % of control; the T/C (dose: 16.0 mg/kg/injection, schedule: Q07DX003 (ip), vehicle: saline) was 113 % of control; the T/C (dose: 32.0 mg/kg/injection, schedule: Q07DX002 (ip), vehicle: saline) is 18 % of control; the T/C (dose: 32.0 mg/kg/injection, schedule: Q07DX003 (ip), vehicle: saline) is 92 % of control; the T/C (dose: 64.0 mg/kg/injection, schedule: Q07DX002 (ip), vehicle: saline) was 20 % of control. Also, the T/C is, setting by setting: (dose: 64.0 mg/kg/injection, schedule: Q07DX002 (ip), vehicle: suspension in saline) 71 % of control and 92 % of control; (dose: 64.0 mg/kg/injection, schedule: Q07DX003 (ip), vehicle: saline) 41 % of control.
Take `CC(/C=N/N=C(N)N)=N\N=C(N)N`: the T/C runs as follows: under setting [1], 66 % of control; under setting [2], 66 % of control; under setting [3], 79 % of control; under setting [4], 115 % of control.
With `O=C(O)C(O)C(O)C1[O][Sb][O]C1C(=O)O` (centres undefined), the T/C under setting [5] was 90 % of control, the T/C under setting [6] is 35 % of control, the T/C under setting [7] is 109 % of control and the T/C under setting [8] is 85 % of control.
Regarding `[N-]=[N+]=CC(=O)CCC(=O)C=[N+]=[N-]`, the T/C is, setting by setting: (dose: 50.0 mg/kg/injection, schedule: Q07DX003 (ip), vehicle: Klucel (hydroxypropylcellulose) (HPC)) 39 % of control; (dose: 100.0 mg/kg/injection, schedule: Q07DX003 (ip), vehicle: Klucel (hydroxypropylcellulose) (HPC)) 45 % of control; (dose: 200.0 mg/kg/injection, schedule: Q07DX003 (ip), vehicle: Klucel (hydroxypropylcellulose) (HPC)) 50 % of control; (dose: 400.0 mg/kg/injection, schedule: Q07DX003 (ip), vehicle: Klucel (hydroxypropylcellulose) (HPC)) 19 % of control.
For the compound `CN(C)c1ncnc2c1ncn2C1OC(CO)C(N)C1O` (centres undefined), the T/C is, setting by setting: under setting [5], 110 % of control; under setting [6], 85 % of control; under setting [7], 105 % of control; under setting [8], 106 % of control; (dose: 200.0 mg/kg/injection, schedule: Q07DX002 (ip), vehicle: saline) 63 % of control.
For `CN(C)CCC(=O)C(=Cc1ccc(O)cc1)C(=O)CCN(C)C`, the T/C runs as follows: under setting [6], 97 % of control; under setting [7], 112 % of control; under setting [8], 77 % of control.
`N#CCCN(C(=S)Nc1cccc(C(F)(F)F)c1)C1CCCCC1`: the T/C (dose: 50.0 mg/kg/injection, schedule: Q07DX002 (ip), vehicle: Klucel (hydroxypropylcellulose) (HPC)) was 67 % of control and 71 % of control; the T/C under setting [9] was 76 % of control and 80 % of control and 88 % of control; the T/C (dose: 800.0 mg/kg/injection, schedule: Q07DX002 (ip), vehicle: Klucel (hydroxypropylcellulose) (HPC)) was 79 % of control and 92 % of control.
For the compound `CC(=O)Oc1ccc[nH]c1=O`, the T/C reads like this: under setting [10], 102 % of control; (dose: 25.0 mg/kg/injection, schedule: Q07DX003 (ip), vehicle: saline with Tween-80) 101 % of control; (dose: 50.0 mg/kg/injection, schedule: Q07DX002 (ip), vehicle: saline with Tween-80) 77 % of control; (dose: 50.0 mg/kg/injection, schedule: Q07DX003 (ip), vehicle: saline with Tween-80) 70 % of control; (dose: 100.0 mg/kg/injection, schedule: Q07DX002 (ip), vehicle: saline with Tween-80) 108 % of control and 92 % of control; (dose: 100.0 mg/kg/injection, schedule: Q07DX003 (ip), vehicle: saline with Tween-80) 49 % of control. For the same compound, the T/C under setting [11] is 114 % of control; the T/C (dose: 200.0 mg/kg/injection, schedule: Q07DX003 (ip), vehicle: saline with Tween-80) was 114 % of control; the T/C (dose: 400.0 mg/kg/injection, schedule: Q07DX003 (ip), vehicle: saline with Tween-80) was 83 % of control; the T/C (dose: 800.0 mg/kg/injection, schedule: Q07DX002 (ip), vehicle: saline with Tween-80) was 74 % of control and 75 % of control; the T/C (dose: 800.0 mg/kg/injection, schedule: Q07DX003 (ip), vehicle: saline with Tween-80) is 57 % of control.
Take `C1CN2CCC1CC2`: the T/C is 101 % of control (dose: 3.12 mg/kg/injection, schedule: Q07DX003 (ip), vehicle: saline) and 78 % of control under setting [1].
`O=C(O)CC(=O)O.[NH-]CC[NH-].[Pt+2]`: the T/C reads like this: (dose: 14.1 mg/kg/injection, schedule: Q07DX002 (ip), vehicle: dextrose) 71 % of control and 85 % of control; (dose: 28.1 mg/kg/injection, schedule: Q07DX002 (ip), vehicle: dextrose) 69 % of control; (dose: 28.2 mg/kg/injection, schedule: Q07DX002 (ip), vehicle: dextrose) 71 % of control and 75 % of control; (dose: 56.2 mg/kg/injection, schedule: Q07DX002 (ip), vehicle: dextrose) 42 % of control.
`CC[n+]1ccc(Nc2ccc(NC(=O)c3ccc(C(=O)Nc4ccc(Nc5cc[n+](CC)c(N)n5)cc4)cc3)cc2)nc1N`: the T/C runs as follows: under setting [1], 89 % of control; (dose: 6.25 mg/kg/injection, schedule: Q07DX003 (ip), vehicle: suspension in saline) 70 % of control; under setting [2], 55 % of control; under setting [3], 67 % of control; (dose: 25.0 mg/kg/injection, schedule: Q07DX003 (ip), vehicle: suspension in saline) 123 % of control; (dose: 50.0 mg/kg/injection, schedule: Q07DX003 (ip), vehicle: saline) 67 % of control. Besides, the T/C (dose: 50.0 mg/kg/injection, schedule: Q07DX003 (ip), vehicle: suspension in saline) is 54 % of control; the T/C under setting [4] was 56 % of control; the T/C (dose: 100.0 mg/kg/injection, schedule: Q07DX003 (ip), vehicle: suspension in saline) is 36 % of control.
In the case of `Cc1ccc2c(ccc(CC(=S)[S-])[n+]2C)c1`, the T/C is 111 % of control and 93 % of control (dose: 100.0 mg/kg/injection, schedule: Q07DX002 (ip), vehicle: Klucel (hydroxypropylcellulose) (HPC)); 122 % of control under setting [9].
For `BrC1CC(Br)c2c1c1c(c3c2C(Br)CC3Br)C(Br)CC1Br` (centres undefined), the T/C is 157 % of control (dose: 12.5 mg/kg/injection, schedule: Q07DX002 (ip), vehicle: saline with Tween-80); 94 % of control and 103 % of control under setting [10]; 80 % of control and 86 % of control under setting [11]; 81 % of control and 105 % of control (dose: 400.0 mg/kg/injection, schedule: Q07DX002 (ip), vehicle: saline with Tween-80).
In the case of `Nc1nc2c(ncn2C2OC(CO)C(O)C2O)c(=O)[nH]1.Nc1nc2c(ncn2C2OC(CO)C(O)C2O)c(=O)[nH]1.[NH2-].[NH2-].[Pt+2]` (centres undefined), the T/C by setting is: (dose: 12.5 mg/kg/injection, schedule: Q07DX002 (ip), vehicle: water) 30 % of control; (dose: 25.0 mg/kg/injection, schedule: Q07DX002 (ip), vehicle: water) 108 % of control; (dose: 50.0 mg/kg/injection, schedule: Q07DX002 (ip), vehicle: water) 96 % of control; (dose: 100.0 mg/kg/injection, schedule: Q07DX002 (ip), vehicle: water) 248 % of control; (dose: 200.0 mg/kg/injection, schedule: Q07DX002 (ip), vehicle: water) 117 % of control.

(Values after PubChem BioAssay AID212 (DTP/NCI, 2004).)
